{
  "source": "patent US20110237633A1",
  "about": "“SMALL MOLECULE MODULATORS OF HEPATOCYTE GROWTH FACTOR (SCATTER FACTOR) ACTIVITY” (priority 2008, published 2011)",
  "data": [
    {"tested_on": "not listed separately", "assay": "MTT cell viability assay, protection from adriamycin-induced apoptosis", "conditions": "dog, MDCK cells", "units": {"viability": "%"}, "quoted_text": "Using the MTT cell viability assay the ability of compounds of the invention to protect cells from adriamycin-induced apoptosis is tested.", "values": [
      {"molecule": "COc1cccc2c1C(=O)c1c(O)c3c(c(O)c1C2=O)C[C@@](O)(C(=O)CO)C[C@@H]3O[C@H]1C[C@H](N)[C@H](O)[C@H](C)O1", "note": "[Adriamycin, adriamycin]", "viability": 56}
    ]},
    {"tested_on": "LX2 cells (collagen I mRNA)", "assay": "Antifibrotic activity: collagen I mRNA by real time PCR in LX2 hepatic stellate cells", "assay_type": "cell-based, human", "conditions": "serum starved LX2 cells, 24 hours, HGF 100 ng/ml", "description": "2. Antifibrotic Activity of HGF and compounds of the invention in vitro and in vivo. The antifibrotic effects of HGF and compounds of the invention in the immortalized human hepatic stellate cell line LX2 are determined. Serum starved LX2 cells are treated for 24 hours with HGF at 100 ng/ml and compounds of the invention at doses ranging from 12 to 24 ug/ml. RNA is then isolated and real time PCR is performed to evaluate changes in collagen I mRNA. Results typically indicate a 90% and 70% decrease in collagen I mRNA expression in cells treated with instant compounds and HGF, respectively. Additional experiments to determine the effects of HGF and compounds on TGFb-1, bPDGF-R and MMP-1 mRNA are also performed to more completely characterize activities of these compounds which can contribute to their antifibrotic effects.", "units": {"decrease in collagen I mRNA expression": "%"}, "values": [
      {"molecule": "HGF: Scatter factor / hepatocyte growth factor, pleiotropic growth factor used as positive control", "decrease in collagen I mRNA expression": 70}
    ]},
    {"tested_on": "MDCK cells", "assay": "not given", "conditions": "not given", "units": {"cell viability after pretreatment, then adriamycin": "%"}, "values": [
      {"molecule": "HGF: Scatter factor / hepatocyte growth factor, pleiotropic growth factor used as positive control", "cell viability after pretreatment, then adriamycin": 94}
    ]},
    {"tested_on": "Endothelial cells (HUVECs)", "assay": "Assessment of HGF/SF-like activity: HUVEC proliferation (3H thymidine incorporation / Cell titer Glo)", "assay_type": "cell-based, human", "conditions": "test compounds 10 μM (or 0.01 to 25 micromolar), 24 hr; growth compared to 50 ng/mL HGF control", "description": "1. Assessment of HGF/SF-like activity: The following assay is performed to assess the HGF/SF-like activity of the compounds of the invention. Endothelial cells (HUVECs) are seeded in 48 well plates at a density of 10,000 to 20,000 cells per well in the normal growth medium (EGM-2-Clonetics) containing 2% fetal bovine serum, FGF, VEGF, IGF, ascorbic acid, EGF, GA, heparin and hydrocortisone. The cells are grown normally in the growth medium for 24 hr at 37° C. and 5% CO2. The cells are then rinsed with RPMI-1% BSA and are starved for 1-2 hrs. The stock solutions of the compounds of the invention are made at a concentration of 10 mg/ml in DMSO and are diluted in RPMI-1% BSA at a final concentrations of 0.01 micromolar to 25 micromolar. The cells are then washed and are treated with the compounds and are incubated for another 24 hr at 37° C. Then ^3H thymidine (0.5 microgram/ml in RPMI-BSA) is added to the cells and they are incubated at 37° C. for 4 to 5 hours. The unincorporated thymidine is removed by washing the cells four times with 1×PBS. Then the cells are lysed with 0.5M NaOH for 30 min and the radioactivity is counted in the beta counter. A similar proliferation assay using monkey bronchial epithelial cells (4 MBR-5) is also employed.\nIn another assay format, HUVEC cells were grown in EGM-2 medium (Lonza) with 5% FBS to 80% confluence at 37° C. and in 5% CO2. Cells were plated in a white opaque flat bottom 96 well plate at a density of 10000 cells per well and in a volume of 100 μL, and incubated overnight and starved by washing twice in serum-free EGM-2 media. After 2 hours, cells were treated with 100 μL EGM-2 medium containing 10 μM test compounds and incubated for an additional 24 hours at 37° C. (All compounds were in DMSO and the final concentration of DMSO in the assay was 0.1%). In all experiments, serum (5%) and HGF (50 ng/mL final) were run as positive controls and DMSO vehicle was run as a negative control. 10 μL Cell titer Glo reagent (Promega) was added to each well and plates were mixed by gentle tapping. After 10 minutes at room temperature, plates were read on a Packard Top Count Luminescence plate reader. Proliferation was expressed as a percentage of growth compared to 50 ng/mL HGF control, with the DMSO control representing 0% growth and the HGF control representing 100% growth.", "values": [
      {"molecule": "CCn1c(C)nc2cc(-c3ccccc3)ccc21", "note": "[1-ethyl-2-methyl-5-phenyl-1H-benzo[d]imidazole]", "HGF/SF-like activity (HUVEC proliferation)": "active"},
      {"molecule": "CC(C)N1CC(c2nc(-c3ccc4ccccc4c3)c[nH]2)CC1=O", "note": "(centres unmarked) [1-isopropyl-4-(4-(naphthalen-2-yl)-1H-imidazol-2-yl)pyrrolidin-2-one]", "HGF/SF-like activity (HUVEC proliferation)": "active"},
      {"molecule": "C(=Cc1cccs1)c1ccc[nH]1", "note": "[2-(2-(thiophen-2-yl)vinyl)-1H-pyrrole]", "HGF/SF-like activity (HUVEC proliferation)": "active"},
      {"molecule": "Nc1ccc(C=Cc2nc3cc(N)ccc3[nH]2)cc1", "note": "[2-(4-aminostyryl)-1H-benzo[d]imidazol-5-amine]", "HGF/SF-like activity (HUVEC proliferation)": "active"},
      {"molecule": "c1ccc2cc(-c3ncc[nH]3)ccc2c1", "note": "[2-(naphthalen-2-yl)-1H-imidazole]", "HGF/SF-like activity (HUVEC proliferation)": "active"},
      {"molecule": "C(=Cc1ncc[nH]1)c1ccccc1", "note": "[2-styryl-1H-imidazole]", "HGF/SF-like activity (HUVEC proliferation)": "active"},
      {"molecule": "CSc1nnc(C=Cc2cccs2)[nH]1", "note": "[3-(methylthio)-5-(2-(thiophen-2-yl)vinyl)-4H-1,2,4-triazole]", "HGF/SF-like activity (HUVEC proliferation)": "active"},
      {"molecule": "c1ccc2cc(-c3cnc[nH]3)ccc2c1", "note": "[5-(naphthalen-2-yl)-1H-imidazole]", "HGF/SF-like activity (HUVEC proliferation)": "active"},
      {"molecule": "c1ccc2cc(-c3nnn[nH]3)ccc2c1", "note": "[5-(naphthalen-2-yl)-1H-tetrazole]", "HGF/SF-like activity (HUVEC proliferation)": "active"},
      {"molecule": "C(=Cc1cnc[nH]1)c1ccccc1", "note": "[5-styryl-1H-imidazole]", "HGF/SF-like activity (HUVEC proliferation)": "active"},
      {"molecule": "C(=Cc1nnn[nH]1)c1ccccc1", "note": "[5-styryl-1H-tetrazole]", "HGF/SF-like activity (HUVEC proliferation)": "active"},
      {"molecule": "Nc1nnc(C=Cc2ccccc2)[nH]1", "note": "[5-styryl-4H-1,2,4-triazol-3-amine]", "HGF/SF-like activity (HUVEC proliferation)": "active"},
      {"molecule": "c1coc(-c2ccc3cn[nH]c3c2)c1", "note": "[6-(furan-2-yl)-1H-indazole]", "HGF/SF-like activity (HUVEC proliferation)": "active"},
      {"molecule": "c1cc(-c2ccc3cn[nH]c3c2)co1", "note": "[6-(furan-3-yl)-1H-indazole]", "HGF/SF-like activity (HUVEC proliferation)": "active"},
      {"molecule": "c1csc(-c2ccc3cn[nH]c3c2)c1", "note": "[6-(thiophen-2-yl)-1H-indazole]", "HGF/SF-like activity (HUVEC proliferation)": "active"},
      {"molecule": "c1cc(-c2ccc3cn[nH]c3c2)cs1", "note": "[6-(thiophen-3-yl)-1H-indazole]", "HGF/SF-like activity (HUVEC proliferation)": "active"},
      {"molecule": "CS(=O)(=O)Nc1ccc(-c2ccc3nc[nH]c3c2)cc1", "note": "[N-(4-(1H-benzo[d]imidazol-6-yl)phenyl)methanesulfonamide]", "HGF/SF-like activity (HUVEC proliferation)": "active"}
    ]}
  ]
}
